Results published in US20130280169A1, “CENTRAL NERVOUS SYSTEM TISSUE-LABELING COMPOSITION, METHOD FOR LABELING CENTRAL NERVOUS SYSTEM TISSUE, AND SCREENING METHOD USING CENTRAL NERVOUS SYSTEM TISSUE-LABELING COMPOSITION” (CANON KABUSHIKI KAISHA, priority 2009, published 2013).

Tests used:
[1] = system: mouse brain tissue section; assay: Labeling of a mouse brain tissue section, confocal microscope; settings: 3-month-old B10 mouse, 10 μm frozen section, 1 ug/mL in PBS, incubation one hour
Procedure: A 3-month-old B10 mouse was sacrificed by diethyl ether anesthesia, and the brain is collected. The brain thus removed is embedded in an OCT compound, and then frozen in isopentane cooled with liquid nitrogen. The resulting brain was sliced into thin sections of approximately 10 μm in thickness in a cryostat cooled to −20° C. The thin sections were then placed on a slide glass and dried, whereby a section of the brain tissue was prepared. To the section of […] tissue thus prepared, a 1 ug/mL solution of the compound (13) in PBS was added, followed by incubation for one hour. After one hour, the slide glass was washed with PBST (PBS containing 0.2% Triton-X100) three times, and then sealed with a cover glass. Upon observation of the slide glass by a confocal microscope (manufactured by Carl Zeiss, Inc., Pascal
A 3-month-old B10 mouse was sacrificed by diethyl ether anesthesia, and the brain is collected. The brain thus removed is embedded in an OCT compound, and then frozen in isopentane cooled with liquid nitrogen. The resulting brain was sliced into thin sections of approximately 10 μm in thickness in a cryostat cooled to −20° C. The thin sections were then placed on a slide glass and dried, whereby a section of the brain tissue was prepared. To the section of […] tissue thus prepared, a 1 ug/mL solution of the compound (27) in PBS was added, followed by incubation for one hour. […]

[2] = system: mouse brain; assay: Labeling of mouse brain after intraperitoneal administration; format: in vivo; settings: 3-month-old B10 mouse, 0.2 ml single intraperitoneal dose, brain collected after one hour
Procedure: The compound (13) is added to an equimolar solution of NaOH so that a concentration of 10 mg/ml is reached, and the resulting mixture is centrifuged at 14 krpm for five minutes to obtain a supernatant. Then, 0.2 ml of the supernatant thus obtained is intraperitoneally administered to a 3-month-old B10 mouse in a single dose. After one hour, the animal thus treated is sacrificed by diethyl ether anesthesia, and the brain is collected. The brain thus removed is embedded in an OCT compound, and then frozen in isopentane cooled with liquid nitrogen. The resulting brain was sliced into thin sections of approximately 10 μm in thickness in a cryostat cooled to −20° C. The thin sections were then placed on a slide glass and dried, whereby a section of the brain tissue was prepared. The brain tissue section thus prepared was observed under a confocal microscope (manufactured by Carl Zeiss, Inc., Pascal Exciter).
After one hour, the animal thus treated is sacrificed by diethyl ether anesthesia, and the brain is collected. The brain thus removed is embedded in an OCT compound, and then frozen in isopentane cooled with liquid nitrogen. The resulting brain was sliced into thin sections of approximately 10 μm in thickness in a cryostat cooled to −20° C. The thin sections were then placed on a slide glass and dried, whereby a section of the brain tissue was prepared. […]

[3] = Excitation and fluorescence wavelength by FL4500 fluorescence spectrophotometer; settings: aqueous solution
[4] = system: central nervous system tissues of juvenile zebrafish (7 dpf); assay: Labeling the central nervous system tissue of live 7 dpf juvenile zebrafish by immersion in labeling solution; settings: labeling solution 1 μg/mL
Procedure: Subsequently, the labeling solution 1 in the well was removed and replaced by 1 mL of distilled water. This operation was repeated three times. Then, juvenile zebrafish was removed from the well and embedded in 5% low melting point agarose gel on a slide glass so as to restrict movement, and the state of labeling in the central nervous system tissues were observed from the lateral side of zebrafish by a fluorescence stereomicroscope (manufactured by Leica Microsystems, MZ16FA). Also, the brain nerve tissues were observed from the parietal region by a confocal microscope (manufactured by Carl Zeiss, Inc., Pascal Exciter).

[5] = 10 mg/mL DMSO solution diluted 500-fold with distilled water
[6] = 10 mg/mL DMSO solution diluted 500-fold with distilled water (Table 2)
[7] = juvenile zebrafish, one hour (Table 2)

SMILES | Labeling property in a mouse brain tissue section [1] | Labeling property in a mouse brain by intraperitoneal administration [2] | λem [3, 5] | λex [3, 5] | Labeling property ([4]; 7 dpf juvenile zebrafish, one hour) | Excitation wavelength λex [3, 6] | Fluorescence wavelength λem [3, 6] | Stokes shift λem − λex [3, 6] | Fluorescence sensitivity [4, 7] | Labeling property [4, 7]
CCN1c2ccc(/C=C3/SC(=S)N(CCC(=O)O)C3=O)cc2C2CCCC21 (centres unmarked) [(13)] | confirmed to exert a labeling property | confirmed to exert a labeling property | 604 | 576 | ++ | – | – | – | – | –
CCN(CC)c1ccc2cc(-c3nc4ccc(C)cc4o3)c(=O)oc2c1 [Compound 27] | confirmed to exert a labeling property | – | – | – | – | 472 | 504 | 32 | ++ | ++
